Measurements: ChEMBL document CHEMBL1132549, “Design and structure-activity relationship of a new class of potent VEGF receptor tyrosine kinase inhibitors” (J Med Chem, 1999)
Activity calls are given as the source filed them. The calls are words filed in the database; no cut-off is given here.

Columns and labels:
[1] = Mouse plasma levels are obtained 24 hr after oral administration of 100 mg/kg of compound.; assay type: ADME, organism-based; parameters: dose 100 mg/kg, route oral; conditions: read-out: Plasma level
[2] = Mouse plasma levels are obtained 6 hr after oral administration of 100 mg/kg of compound.; assay type: ADME, organism-based; parameters: dose 100 mg/kg, route oral; conditions: read-out: Plasma level
[3] = system: HUVEC; experiment: Inhibition of unstimulated HUVEC cell proliferation; assay type: functional, cell-based; conditions: Homo sapiens
[4] = target: Fibroblast growth factor receptor 1 (Homo sapiens, UniProt P11362)
Sequence of Fibroblast growth factor receptor 1 (P11362 whole entry): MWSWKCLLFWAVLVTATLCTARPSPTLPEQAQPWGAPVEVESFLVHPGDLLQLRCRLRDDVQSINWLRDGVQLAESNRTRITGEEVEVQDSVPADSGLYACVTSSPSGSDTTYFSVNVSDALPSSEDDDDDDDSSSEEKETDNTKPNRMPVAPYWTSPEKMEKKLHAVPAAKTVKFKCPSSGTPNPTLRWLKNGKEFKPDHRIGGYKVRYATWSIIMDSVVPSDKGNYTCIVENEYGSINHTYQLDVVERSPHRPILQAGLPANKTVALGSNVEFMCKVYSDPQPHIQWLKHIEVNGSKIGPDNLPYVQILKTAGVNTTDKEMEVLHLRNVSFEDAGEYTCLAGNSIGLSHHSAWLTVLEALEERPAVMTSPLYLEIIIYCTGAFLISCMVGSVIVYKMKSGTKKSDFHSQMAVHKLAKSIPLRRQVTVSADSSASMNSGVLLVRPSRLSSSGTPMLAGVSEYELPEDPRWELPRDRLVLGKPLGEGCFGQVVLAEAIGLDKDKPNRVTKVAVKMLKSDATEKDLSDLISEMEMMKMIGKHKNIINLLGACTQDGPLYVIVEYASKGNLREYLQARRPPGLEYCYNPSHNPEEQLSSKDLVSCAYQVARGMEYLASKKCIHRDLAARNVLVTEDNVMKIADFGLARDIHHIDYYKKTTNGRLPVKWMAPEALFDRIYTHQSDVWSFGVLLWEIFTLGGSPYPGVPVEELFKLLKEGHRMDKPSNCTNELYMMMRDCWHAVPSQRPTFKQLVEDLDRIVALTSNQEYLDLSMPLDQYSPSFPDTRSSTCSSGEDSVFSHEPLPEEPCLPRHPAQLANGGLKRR

[5] = target: Fibroblast growth factor receptor (Homo sapiens, UniProt P22607+P11362+P22455+P21802); conditions: huvec
[6] = target: Vascular endothelial growth factor receptor 2 (Homo sapiens, UniProt P35968)
Sequence of Vascular endothelial growth factor receptor 2 (P35968 whole entry): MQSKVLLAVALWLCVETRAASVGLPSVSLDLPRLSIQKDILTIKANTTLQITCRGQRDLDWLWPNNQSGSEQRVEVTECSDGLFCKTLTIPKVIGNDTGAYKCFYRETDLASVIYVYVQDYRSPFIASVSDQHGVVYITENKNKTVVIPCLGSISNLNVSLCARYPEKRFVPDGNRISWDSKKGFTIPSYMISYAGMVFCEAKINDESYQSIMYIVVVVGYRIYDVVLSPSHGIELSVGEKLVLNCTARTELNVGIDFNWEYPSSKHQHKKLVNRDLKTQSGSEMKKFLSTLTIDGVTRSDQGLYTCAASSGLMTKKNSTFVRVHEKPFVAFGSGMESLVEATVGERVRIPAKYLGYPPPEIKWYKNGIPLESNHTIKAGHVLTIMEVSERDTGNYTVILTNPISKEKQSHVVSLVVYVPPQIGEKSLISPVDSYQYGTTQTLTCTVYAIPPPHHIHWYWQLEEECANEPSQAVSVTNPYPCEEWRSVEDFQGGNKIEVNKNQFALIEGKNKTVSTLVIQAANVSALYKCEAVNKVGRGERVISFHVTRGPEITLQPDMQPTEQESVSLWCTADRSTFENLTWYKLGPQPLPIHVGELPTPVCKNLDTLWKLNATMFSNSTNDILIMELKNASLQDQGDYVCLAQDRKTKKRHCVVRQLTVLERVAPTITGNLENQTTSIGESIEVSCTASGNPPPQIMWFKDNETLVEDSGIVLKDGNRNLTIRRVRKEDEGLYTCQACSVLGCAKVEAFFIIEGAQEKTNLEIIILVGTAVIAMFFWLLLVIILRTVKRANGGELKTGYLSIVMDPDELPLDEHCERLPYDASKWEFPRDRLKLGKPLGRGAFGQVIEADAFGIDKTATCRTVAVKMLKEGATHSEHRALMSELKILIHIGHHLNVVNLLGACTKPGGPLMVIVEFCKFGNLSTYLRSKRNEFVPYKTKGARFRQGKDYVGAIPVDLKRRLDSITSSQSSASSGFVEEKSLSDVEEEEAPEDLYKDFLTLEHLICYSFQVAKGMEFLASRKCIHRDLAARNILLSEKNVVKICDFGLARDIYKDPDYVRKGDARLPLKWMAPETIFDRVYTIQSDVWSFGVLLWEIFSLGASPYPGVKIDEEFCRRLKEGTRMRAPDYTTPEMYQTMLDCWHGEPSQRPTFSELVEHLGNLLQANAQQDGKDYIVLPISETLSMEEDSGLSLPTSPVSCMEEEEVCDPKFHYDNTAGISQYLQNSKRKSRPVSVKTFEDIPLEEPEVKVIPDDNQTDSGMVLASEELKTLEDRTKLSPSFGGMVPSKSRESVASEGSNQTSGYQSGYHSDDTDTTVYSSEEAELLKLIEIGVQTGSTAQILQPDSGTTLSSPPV

[7] = target: Vascular endothelial growth factor receptor 1 (Homo sapiens, UniProt P17948)
Sequence of Vascular endothelial growth factor receptor 1 (P17948 whole entry): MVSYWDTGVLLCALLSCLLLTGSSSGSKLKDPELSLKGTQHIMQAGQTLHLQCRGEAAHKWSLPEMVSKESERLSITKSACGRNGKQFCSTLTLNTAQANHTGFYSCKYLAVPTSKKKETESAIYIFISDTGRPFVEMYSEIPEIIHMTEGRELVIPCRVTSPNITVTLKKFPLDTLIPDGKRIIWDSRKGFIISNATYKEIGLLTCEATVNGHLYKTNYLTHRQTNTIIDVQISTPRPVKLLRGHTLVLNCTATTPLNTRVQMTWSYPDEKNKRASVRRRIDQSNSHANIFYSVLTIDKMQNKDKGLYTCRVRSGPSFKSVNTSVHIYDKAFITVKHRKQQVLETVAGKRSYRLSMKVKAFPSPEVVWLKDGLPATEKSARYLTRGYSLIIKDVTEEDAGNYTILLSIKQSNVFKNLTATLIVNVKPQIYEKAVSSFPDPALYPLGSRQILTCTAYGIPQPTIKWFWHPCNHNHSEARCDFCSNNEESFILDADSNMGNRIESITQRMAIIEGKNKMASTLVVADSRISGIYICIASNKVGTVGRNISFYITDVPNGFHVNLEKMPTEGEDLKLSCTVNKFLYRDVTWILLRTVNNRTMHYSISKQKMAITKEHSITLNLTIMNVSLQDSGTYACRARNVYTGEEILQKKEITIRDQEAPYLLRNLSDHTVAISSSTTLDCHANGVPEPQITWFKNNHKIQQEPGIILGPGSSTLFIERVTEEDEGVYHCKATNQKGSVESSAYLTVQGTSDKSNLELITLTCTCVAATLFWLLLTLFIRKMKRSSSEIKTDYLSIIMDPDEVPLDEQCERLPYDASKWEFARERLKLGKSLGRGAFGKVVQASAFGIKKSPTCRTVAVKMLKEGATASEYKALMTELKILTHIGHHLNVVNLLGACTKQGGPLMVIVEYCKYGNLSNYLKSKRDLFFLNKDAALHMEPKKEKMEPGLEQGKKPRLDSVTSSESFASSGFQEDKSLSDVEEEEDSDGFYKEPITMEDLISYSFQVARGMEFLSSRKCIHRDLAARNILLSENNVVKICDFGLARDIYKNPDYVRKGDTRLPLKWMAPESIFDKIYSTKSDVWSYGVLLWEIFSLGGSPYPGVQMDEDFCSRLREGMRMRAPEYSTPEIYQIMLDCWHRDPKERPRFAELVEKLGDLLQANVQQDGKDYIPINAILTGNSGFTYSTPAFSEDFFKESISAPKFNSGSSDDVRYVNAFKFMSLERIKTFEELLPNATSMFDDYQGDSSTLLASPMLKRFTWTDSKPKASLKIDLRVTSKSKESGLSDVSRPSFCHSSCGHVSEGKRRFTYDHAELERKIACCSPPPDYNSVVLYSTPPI

[8] = system: Rattus norvegicus; experiment: Percent inhibition of VEGF-mediated estradiol benzoate-induced rat uterus weight gain at 100 mg/kg oral dose; assay type: functional
[9] = target: Vascular endothelial growth factor receptor (Homo sapiens, UniProt P17948+P35916+P35968); conditions: huvec
[10] = system: Rattus norvegicus; experiment: Percent inhibition of VEGF-mediated estradiol benzoate-induced rat uterus weight gain at 100 mg/kg oral dose; NA is Not Active; assay type: functional, organism-based; parameters: dose 100 mg/kg
[11] = system: Rattus norvegicus; experiment: Percent inhibition of VEGF-mediated estradiol benzoate-induced rat uterus weight gain at 60 mg/kg oral dose; assay type: functional

| IC50 [4] [nM] | IC50 [6] [nM] | IC50 [7] [nM] | SMILES | further results |
| --- | --- | --- | --- | --- |
| – | – | – | COc1cc2c(Nc3ccc(Cl)cc3F)ncnc2cc1OCCn1ccnn1 | concentration at 24 h [1]: 10 µM; concentration at 6 h [2]: 49 µM; IC50 [3]: 5000 nM |
| > 100000 | 30 | 700 | COc1cc2c(Nc3ccc(Br)cc3F)ncnc2cc1OCCn1ccnn1 [ZD-4190 FREE BASE] | IC50 [5]: 1500 nM; IC50 [3]: > 10000 nM |
| 6700 | 9 | – | COc1cc2c(Nc3ccc(Cl)cc3F)ncnc2cc1OCCCN1CCOCC1 | concentration at 24 h [1]: 0.8 µM; concentration at 6 h [2]: 4 µM; inhibition in vivo at 100 mg/kg [8]: 59% |
| > 33000 | 60 | 1200 | COc1cc2c(Nc3ccc(Cl)cc3F)ncnc2cc1OCc1ccncc1 | – |
| 19000 | 40 | 1100 | COc1cc2c(Nc3ccc(Cl)cc3F)ncnc2cc1OCCN1CCOCC1 | – |
| 27000 | 7 | 400 | COCCOc1cc2ncnc(Nc3ccc(Cl)cc3F)c2cc1OC | concentration at 24 h [1]: < 0.1 µM; concentration at 6 h [2]: 12 µM; inhibition in vivo at 100 mg/kg [8]: 31% |
| 40000 | 1500 | 15000 | COc1cc2c(Nc3ccc(Cl)cc3F)ncnc2cc1OC1CCN(C)CC1 | – |
| > 100000 | 60 | 900 | COCCOc1cc2ncnc(Nc3ccc(Cl)cc3F)c2cc1OCCOC | – |
| – | – | > 33000 | COc1cc2ncnc(Nc3ccc(I)cc3Cl)c2cc1OC | – |
| 11000 | – | 200 | COc1cc2ncnc(Nc3cccc(O)c3)c2cc1OC | – |
| 7000 | 100 | – | COc1cc2ncnc(Nc3ccc(Cl)cc3F)c2cc1OC | inhibition in vivo at 100 mg/kg [8]: 34% |
| – | – | 50 | COCCOc1cc2nncc(Nc3cc(O)c(Cl)cc3F)c2cc1OC | – |
| > 100000 | 2700 | 26000 | COc1cc2ncnc(Nc3ccccc3F)c2cc1OC | – |
| > 100000 | 800 | 11000 | COc1cc2ncnc(Nc3ccc(Cl)cc3)c2cc1OC | – |
| 7400 | < 2 | < 2 | COCCOc1cc2ncnc(Nc3cc(O)c(Cl)cc3F)c2cc1OC | IC50 [5]: 800 nM; concentration at 24 h [1]: < 0.1 µM; concentration at 6 h [2]: < 0.1 µM; IC50 [9]: 4 nM; IC50 [3]: 5000 nM |
| 1500 | 40 | 300 | COc1cc2c(Nc3ccc(Cl)cc3F)ncnc2cc1OCCCCN1CCOCC1 | – |

| IC50 [4] [nM] | IC50 [6] [nM] | IC50 [7] [nM] | SMILES | further results |
| --- | --- | --- | --- | --- |
| – | – | 63000 | COCCOc1cc2nncc(Nc3ccc(Cl)cc3F)c2cc1OC | – |
| > 100000 | 800 | > 100000 | COc1cc2ncnc(Nc3ccc(F)c(Cl)c3)c2cc1OC | – |
| – | – | – | COc1cc2c(Nc3ccc(Cl)cc3F)ncnc2cc1OCCn1ccnc1 | concentration at 24 h [1]: < 0.1 µM; concentration at 6 h [2]: 11 µM |
| 1600 | 6 | 100 | COc1cc2c(Nc3ccc(Cl)cc3F)ncnc2cc1OCCN(C)c1ccncc1 | – |
| > 100000 | 300 | 300 | COCC(=O)Nc1cc2ncnc(Nc3cc(O)c(C)cc3F)c2cc1OC | – |
| 20000 | 60 | 500 | COc1cc2c(Nc3ccc(Cl)cc3F)ncnc2cc1OCCOCCN1CCOCC1 | concentration at 24 h [1]: < 0.1 µM; concentration at 6 h [2]: 11 µM |
| 45000 | 300 | 8100 | COc1cc2c(Nc3ccc(C#N)cc3F)ncnc2cc1OCCn1ccnn1 | IC50 [5]: 3000 nM; IC50 [9]: 600 nM; IC50 [3]: > 10000 nM |
| 7000 | < 5 | 30 | COCCOc1cc2ncnc(Nc3cccc(O)c3)c2cc1OC | inhibition [10]: inactive |
| 16000 | – | 1500 | COCCOc1ccc2c(Nc3ccc(Cl)cc3F)ncnc2c1 | – |
| – | – | 800 | COc1cc2ncnc(Nc3ccc(I)cc3F)c2cc1OC | – |
| 2500 | 3 | 30 | COc1cc2ncnc(Nc3cc(O)c(C)cc3F)c2cc1OC | concentration at 24 h [1]: < 0.2 µM; concentration at 6 h [2]: < 0.2 µM; inhibition in vivo at 60 mg/kg [11]: 80% |
| 1400 | < 2 | 3 | COCCOc1cc2nccc(Nc3cc(O)c(Cl)cc3F)c2cc1OC | – |
| 58000 | 2900 | 22000 | COc1cc2ncnc(Nc3ccc(F)cc3F)c2cc1OC | – |
| > 50000 | > 100000 | > 100000 | COCC(=O)Nc1cc2ncnc(Nc3ccc(Cl)cc3F)c2cc1OC | – |
| 9300 | 10 | 300 | COCCOc1cc2nccc(Nc3ccc(Cl)cc3F)c2cc1OC | concentration at 6 h [2]: 3 µM |

| SMILES | IC50 [4] [nM] | IC50 [6] [nM] | IC50 [7] [nM] | further results |
| --- | --- | --- | --- | --- |
| COc1cc2c(Nc3c(F)cc(Br)cc3F)ncnc2cc1OCCn1ccnn1 | – | 40 | 800 | IC50 [5]: 100 nM; IC50 [9]: 20 nM; IC50 [3]: 1000 nM |
